Eleven molecules from patent publication US9346761B2, “Arginine methyltransferase inhibitors and uses thereof” (Epizyme, Inc., priority 2013, dated 2016) can be followed below.

Bounds are passed on as bounds.

In assay [1] the target is T1, Full-length human PRMT1 isoform 1 (Homo sapiens, UniProt Q99873).
T1 construct: GST-tagged PRMT1; made in house; host or cells: High Five insect cells (baculovirus, pFastBacI)
Description: PRMT1 biochemical assay (3H-SAM Flashplate, peptide substrate). From the text:
General Materials. S-adenosylmethionine (SAM), S-adenosylhomocysteine (SAH), bicine, Tween20, dimethylsulfoxide (DMSO), bovine skin gelatin (BSG), and Tris(2-carboxyethyl)phosphine hydrochloride solution (TCEP) were purchased from Sigma-Aldrich at the highest level of purity possible. ^3H-SAM was purchase from American Radiolabeled Chemicals with a specific activity of 80 Ci/mmol. 384-well streptavidin Flashplates were purchased from PerkinElmer.
Protein Expression. Recombinant baculovirus were generated according to Bac-to-Bac kit instructions (Life Technologies). […] Infections were carried out at 27° C. for 48 hours, harvested by centrifugation, and stored at −80° C. for purification.
Protein Purification. […] GST-tagged PRMT1 was eluted with 50 mM Tris, 2 mM glutathione, pH 7.8, dialysed in buffer A and concentrated to 1 mg/mL.
(§1) General Procedure for PRMT1 Enzyme Assays on Peptide Substrates. The assays were all performed in a buffer consisting of 20 mM Bicine (pH=7.6), 1 mM TCEP, 0.005% BSG, and 0.002% Tween 20, prepared on the day of use. […] DMSO (1 ul) was added to Columns 11, 12, 23, 24, rows A-H for the maximum signal control and 1 ul of SAH, a known product and inhibitor of PRMT1, was added to columns 11, 12, 23, 24, rows I-P for the minimum signal control. A cocktail (40 ul) containing the PRMT1 enzyme was added by Multidrop Combi (Thermo-Fisher). The compounds were allowed to incubate with PRMT1 for 30 min at room temperature, then a cocktail (10 ul) containing SAM and peptide was added to initiate the reaction (final volume=51 ul). […] The assays were stopped by the addition of non-radiolabeled SAM (10 ul) to a final concentration of 300 uM, which dilutes the ^3H-SAM to a level where its incorporation into the peptide substrate is no longer detectable. 50 ul of the reaction in the 384-well polypropylene plate was then transferred to a 384-well Flashplate and the biotinylated peptides were allowed to bind to the streptavidin surface for at least 1 hour before being washed once with 0.1% Tween20 in a Biotek ELx405 plate washer. The plates were then read in a PerkinElmer TopCount plate reader to measure the quantity of ^3H-labeled peptide bound to the Flashplate surface, measured as disintegrations per minute (dpm) or alternatively, referred to as counts per minute (cpm).
(§2) Where dpm=disintegrations per minute, cmpd=signal in assay well, and min and max are the respective minimum and maximum signal controls.
(§3) Where top and bottom are the normally allowed to float, but may be fixed at 100 or 0 respectively in a 3-parameter fit. The Hill Coefficient normally allowed to float but may also be fixed at 1 in a 3-parameter fit. Y is the % inhibition and X is the compound concentration.

In another assay the target is T2, Full-length human PRMT6 (Homo sapiens, UniProt Q96LA8).
T2 construct: Flag-PRMT6-His was eluted with 200 ug/ml FLAG peptide in the same buffer; made in house; host or cells: HEK 293F cells (BacMam virus, pFastBacMam)
T2 sequence (Q96LA8 with tags, fused parts or gaps): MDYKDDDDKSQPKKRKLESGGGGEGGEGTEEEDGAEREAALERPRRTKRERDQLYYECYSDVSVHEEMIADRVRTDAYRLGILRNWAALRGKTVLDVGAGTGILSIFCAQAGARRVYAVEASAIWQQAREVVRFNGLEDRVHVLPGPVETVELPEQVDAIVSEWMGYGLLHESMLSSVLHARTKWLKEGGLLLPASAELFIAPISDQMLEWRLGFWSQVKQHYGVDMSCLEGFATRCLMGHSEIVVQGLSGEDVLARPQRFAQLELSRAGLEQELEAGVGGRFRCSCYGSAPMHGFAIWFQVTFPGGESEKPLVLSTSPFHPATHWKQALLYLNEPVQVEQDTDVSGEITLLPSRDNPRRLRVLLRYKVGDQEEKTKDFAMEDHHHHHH
Nature of the assay: PRMT6 biochemical assay (3H-SAM Flashplate, peptide substrate).
Source text: General Materials. S-adenosylmethionine (SAM), S-adenosylhomocysteine (SAH), bicine, Tween20, dimethylsulfoxide (DMSO), bovine skin gelatin (BSG), sodium butyrate and Tris(2-carboxyethyl)phosphine hydrochloride solution (TCEP) were purchased from Sigma-Aldrich at the highest level of purity possible. ^3H-SAM was purchase from American Radiolabeled Chemicals with a specific activity of 80 Ci/mmol. 384-well streptavidin Flashplates were purchased from PerkinElmer.
Substrates. Peptide representative of human histone H4 residues 36-50 was synthesized with an N-terminal linker-affinity tag motif and a C-terminal amide cap by 21st Century Biochemicals.
The amplified gene was subcloned into pFastBacMam (Viva Biotech).
Protein Expression. Recombinant baculovirus were generated according to Bac-to-Bac kit instructions (Life Technologies). […] Infections were carried out at 37° C. for 48 hours, harvested by centrifugation, and stored at −80° C. for purification.
Protein Purification. […] Column was washed with 20 mM imidazole in the same buffer and Flag-PRMT6-His was eluted with 150 mM imidazole. Pooled fractions were dialysed against buffer Ni-A and further purified by anti-flag M2 affinity chromatography. Flag-PRMT6-His was eluted with 200 ug/ml FLAG peptide in the same buffer. Pooled fractions were dialysed in 20 mM Tris, 150 mM NaCl, 10% glycerol and 5 mM β-mercaptoethanol, pH 7.8.
as §1, with “PRMT6” for “PRMT1”, “PRMT6,” for “PRMT1,”, “400” for “300”
as §2, §3

In assay [2] the test system is mono-methyl arginine in RKO cells. Description: RKO methylation assay, In Cell Western for mono-methyl arginine and DNA content. It is filed as cell-based. Conditions: Homo sapiens; In Cell Western, RKO cells, 72 hours, percent activation of mono-methyl arginine signal; read-out: EC30. From the text:
RKO adherent cells were purchased from ATCC (American Type Culture Collection), Manassas, Va., USA. DMEM/Glutamax medium, penicillin-streptomycin, heat inactivated fetal bovine serum, 0.05% trypsin and D-PBS were purchased from Life Technologies, Grand Island, N.Y., USA. Odyssey blocking buffer, 800CW goat anti-rabbit IgG (H+L) antibody, and Licor Odyssey infrared scanner were purchased from Licor Biosciences, Lincoln, Nebr., USA. Mono-methyl arginine antibody was purchased from Cell Signaling Technology, Danvers, Mass., USA. Methanol was purchased from VWR, Franklin, Mass., USA. 10% Tween 20 was purchased from KPL, Inc., Gaithersburg, Md., USA. […] was purchased from Biostatus Limited, Leicestershire, UK.
RKO adherent cells were maintained in growth medium (DMEM/Glutamax medium supplemented with 10% v/v heat inactivated fetal bovine serum and 100 units/mL penicillin-streptomycin) and cultured at 37° C. under 5% CO2
Cell Treatment, in Cell Western (ICW) for Detection of Mono-Methyl Arginine and DNA Content. […] Compound (100 nL) from a 96-well source plate was added directly to 384 well cell plate. Plates were incubated at 37° C., 5% CO2 for 72 hours. After three days of incubation, plates were brought to room temperature outside of the incubator for ten minutes and blotted on paper towels to remove cell media. 50 μL of ice cold 100% methanol was added directly to each well and incubated for 30 min at room temperature. After 30 min, plates were transferred to a Biotek EL406 plate washer and washed 2 times with 100 μL per well of wash buffer (1×PBS). Next 60 μL per well of Odyssey blocking buffer (Odyssey Buffer with 0.1% Tween 20 (v/v)) were added to each plate and incubated 1 hour at room temperature. Blocking buffer was removed and 20 μL per well of primary antibody was added (mono-methyl arginine diluted 1:200 in Odyssey buffer with 0.1% Tween 20 (v/v)) and plates were incubated overnight (16 hours) at 4° C. Plates were washed 5 times with 100 μL per well of wash buffer. […] The plates were washed 5 times with 100 μL per well wash buffer then 2 times with 100 μL per well of water. Plates were allowed to dry at room temperature then imaged on the Licor Odyssey machine which measures integrated intensity at 700 nm and 800 nm wavelengths. Both 700 and 800 channels were scanned.
Calculations: First, the ratio for each well was determined by:
Each plate included fourteen control wells of DMSO only treatment (minimum activation) as well as fourteen control wells for maximum activation treated with 20 μM of a reference compound. The average of the ratio values for each control type was calculated and used to determine the percent activation for each test well in the plate. Reference compound was serially diluted three-fold in DMSO for a total of nine test concentrations, beginning at 20 μM. Percent activation was determined and EC30 curves were generated using triplicate wells per concentration of compound.

T1 sequence (Q99873 with tags, fused parts or gaps): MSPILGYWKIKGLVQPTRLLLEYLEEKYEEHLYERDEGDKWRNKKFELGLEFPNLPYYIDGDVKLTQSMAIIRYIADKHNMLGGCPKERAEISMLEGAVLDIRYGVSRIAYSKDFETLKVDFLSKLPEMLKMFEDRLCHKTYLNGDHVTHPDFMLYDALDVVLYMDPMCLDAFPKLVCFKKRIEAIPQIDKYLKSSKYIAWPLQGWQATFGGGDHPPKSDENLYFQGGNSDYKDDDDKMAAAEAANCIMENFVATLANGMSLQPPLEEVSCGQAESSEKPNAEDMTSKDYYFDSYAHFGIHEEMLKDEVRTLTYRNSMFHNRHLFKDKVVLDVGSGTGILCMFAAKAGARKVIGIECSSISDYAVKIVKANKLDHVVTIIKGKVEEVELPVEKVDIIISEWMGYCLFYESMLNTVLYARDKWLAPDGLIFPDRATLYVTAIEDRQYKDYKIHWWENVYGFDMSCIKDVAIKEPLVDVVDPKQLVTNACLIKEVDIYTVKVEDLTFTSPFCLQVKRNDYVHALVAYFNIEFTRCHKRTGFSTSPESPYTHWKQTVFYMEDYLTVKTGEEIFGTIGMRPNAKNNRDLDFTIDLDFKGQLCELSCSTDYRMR

For `CNCCN(C)Cc1n[nH]cc1-c1cc(CC(C)C)cc(CC(C)C)c1` [Compound 271], the IC50 (commonly the midpoint of a concentration-inhibition curve) in assay [1] is under 100 nM; against Full-length human PRMT6, 101 to 1000 nM. Also, in assay [2], the EC30 (commonly the point of the concentration-response curve where the effect stands at 30%) is over 12000 nM.

Regarding `CNCCN(C)Cc1n[nH]cc1-c1cc(OC(C)C)cc(C(C)C)c1` [Compound 272], the half-inhibitory concentration (IC50) in assay [1] was 101 to 1000 nM; at Full-length human PRMT6 it was 1010 to 3000 nM. The EC30 in assay [2] is over 12000 nM.

Regarding `CNCCN(C)Cc1n[nH]cc1-c1cc(Cl)c(OC(C)C)c(Cl)c1` [Compound 273], the IC50 (in assay [1]; at Full-length human PRMT6) was under 100 nM throughout. Besides, the EC30 in assay [2] was under 3000 nM.

Turning to `CNCCN(C)Cc1c[nH]nc1-c1ccc(Oc2ccccc2C(=O)NC)cc1` [Compound 274], the IC50 (in assay [1]; against Full-length human PRMT6) was under 100 nM throughout. In addition, in assay [2], the EC30 is under 3000 nM.

Turning to `CNCCN(C)Cc1n[nH]c(C)c1-c1ccc(OC(C)C)cc1` [Compound 275], the IC50 (in assay [1]; against Full-length human PRMT6) was under 100 nM each time. Besides, in assay [2], the EC30 is under 3000 nM.

As to `CNCCN(C)Cc1c(-c2ccc(OCCCOC)cc2)cnn1C` [Compound 276], the IC50 in assay [1] was over 10000 nM; on Full-length human PRMT6, 1010 to 3000 nM. Further, the EC30 in assay [2] was over 12000 nM.

`CNCCN(C)Cc1n[nH]cc1-c1ccc(Oc2cccc(C(C)C)c2)cc1` [Compound 277]: the IC50 (in assay [1]; against Full-length human PRMT6) was under 100 nM in each case. Also, the EC30 in assay [2] is over 12000 nM.

Turning to `CNCCN(C)Cc1n[nH]cc1-c1ccc(Oc2ccccc2F)cc1` [Compound 279, N^1-((4-(4-(2-fluorophenoxy)phenyl)-1H-pyrazol-3-yl)methyl)-N^1,N^2-dimethylethane-1,2-diamine], the IC50 (in assay [1]; at Full-length human PRMT6) was under 100 nM throughout. Further, the EC30 in assay [2] is under 3000 nM.

For `CC(C)Cc1cc(-c2n[nH]cc2CN(C)CCN)ccc1F` [Compound 280], the IC50 (in assay [1]; against Full-length human PRMT6) was under 100 nM each time. Further, the EC30 in assay [2] is under 3000 nM.

Consider `CNCCN(C)Cc1c[nH]nc1-c1cc(CC(C)C)cc(CC(C)C)c1` [Compound 281], for which the IC50 in assay [1] was under 100 nM; against Full-length human PRMT6 it was 101 to 1000 nM. In assay [2], the EC30 is 3010 to 12000 nM.

For the molecule `CNCCN(C)Cc1c[nH]nc1-c1cc(Cl)c(OCC2CC2)c(Cl)c1` [Compound 282], the IC50 (in assay [1]; against Full-length human PRMT6) was under 100 nM in each case. Further, the EC30 in assay [2] is under 3000 nM.
